From patent publication US20260176289A1, “SMALL MOLECULE INHIBITORS OF KRAS PROTEINS” (Merck Sharp & Dohme LLC, priority 2022, published 2026)
Read-outs that look alike come from different tables or passages of the source.

How the values were obtained:
[1] = target: KRAS-G12C (C51S/C80L/C118S) (Homo sapiens, UniProt P01116, C118S/C51S/C80L/G12C); experiment: SOS-catalyzed nucleotide exchange assay (Procedure A, TR-FRET), KRAS-G12C; type: biochemical; conditions: nucleotide exchange, Procedure A; read-out: KRAS G12C GNE IC50
Procedure, shortened: (§1)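 TR-FRET readout (520/495 nm) of SOS-driven exchange of Bodipy-GDP for unlabeled GTP (3 mM) on biotinylated, Tb-streptavidin-bound RAS, after 60 min compound preincubation at room temperature. Exchange times and RAS/SOS levels: 60 min for WT (1/40 nM), G12C triple mutant (3/40 nM), NRAS (1.25/40 nM); 90 min for G12V (1.25/160 nM). Four-parameter logistic fits on normalized effect.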

PANC08.13 cells = experiment: Cellular phospho-ERK assay, PANC08.13 cells (homozygous KRAS-G12D); type: cell-based; conditions: Homo sapiens, PANC-08-13, KRAS-G12D, 2 hours, read-out: PANC-08.13 pERK IC50
Method: Procedure for Cellular Phospho-ERK Assay in KRAS Wild Type and Mutant (G12D, G12V) Cell Lines
MKN-1 cells (JCRB JCRB0252) containing amplified wild-type KRAS, were cultured in growth medium that contains RPMI 1640-GlutaMAX™-I (ThermoFisher Scientific 61870) containing 10% heat inactivated fetal bovine serum (ThermoFisher Scientific 10091148), 1 mM sodium pyruvate and 10 mM HEPES. PANC08.13 cells (ATCC® CRL-2551™), containing homozygous KRAS-G12D activating mutation, were cultured in growth medium made of RPMI1640-GlutaMAX™-I (ThermoFisher Scientific 61870) containing 15% heat inactivated fetal bovine serum (ThermoFisher Scientific 10091148)). AsPC-1 cells (ATCC® CRL-1682™), containing homozygous KRAS-G12D activating mutation, were cultured in T150 flask in growth medium (RPMI medium 1640-GlutaMAX™-I (ThermoFisher Scientific 61870) containing 10% fetal bovine serum (ThermoFisher Scientific 10091148)). SW620 cells (ATCC® […]), containing homozygous KRAS-G12V activating mutation, were cultured in growth medium that contains RPMI 1640-GlutaMAX™-I (ThermoFisher Scientific 61870) containing 10% heat inactivated fetal bovine serum (ThermoFisher Scientific 10091148).
Cells for the assay were harvested in growth medium after TrypLE (ThermoFisher scientific 12604021) digestion and were seeded in a 384-well collagen coated cell culture plate (Corning 356702) at a density of 10,000-15,000 cells/20 μL/well, and incubated at 37° C., 5% CO2 overnight. The compound (with 10 mM stock concentration) dose-response titrations were prepared [30 μM final ERK detection assay concentration and 1:3 dilutions, 10-point dose response] and appropriate amounts (270 nL) of test compounds were dispensed in a 384-well intermediate plate using an Echo 550 liquid handler. 30 μL/well of RPMI medium 1640-GlutaMAX™—I was added to the intermediate plate and the contents of the intermediate plate (10 μL/well) were then transferred to the 384-well collagen coated cell culture plate, which was incubated at 37° C., 5% CO2 for 2 hours. After removal of medium from the collagen coated cell culture plate, cells were lysed in lysis buffer from Alpha SureFire® Ultra™ Multiplex p-ERK and total ERK assay kit (PerkinElmer MPSU-PTERK) containing Halt™ Protease and Phosphatase inhibitor cocktail (ThermoFisher Scientific 78446) at room temperature with constant shaking at 300 rpm for 30 minutes. The cell lysates were then transferred to an OptiPlate-384 plate (PerkinElmer 6005620), and the phosphorylation of ERK (p-ERK) and total ERK levels were detected by Alpha SureFire® Ultra™ Multiplex p-EEK kit and total ERK assay kit (PerkinElmer MPSU-PTERK) following the manufacturer's protocol. Assay plates were read on a En Vision Multimode Plate Reader (PerkinElmer), and the ratio of p-ERK vs. total ERK in each well was used as the final readout. Dose response curves were analyzed using a 4-parameter logistic model to calculate IC50 values using Spotfire software.

KRAS-G12D = KRAS-G12D (Homo sapiens, UniProt P01116, G12D); experiment: SOS-catalyzed nucleotide exchange assay (Procedure A, TR-FRET), KRAS-G12D; type: biochemical; conditions: nucleotide exchange, read-out: KRAS G12D GNE IC50
Procedure, shortened: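 Signal ratio (520/495 nm, excitation 340 nm) reports Bodipy-GDP retention on biotinylated RAS after SOS-catalyzed exchange with 3 mM GTP. SOS was 40 nM, except 160 nM for G12V. Room-temperature exchange lasted 60 min (90 min for G12V), following a 60 min compound preincubation.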

AsPC-1 cells = experiment: Cellular phospho-ERK assay, AsPC-1 cells (homozygous KRAS-G12D); type: cell-based; conditions: read-out: AsPC1 pERK IC50
Procedure, shortened: (§2)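 Inhibition of ERK phosphorylation was determined after treating attached cells with compound for 2 h; top concentration 30 μM, serial 1:3 dilution. Each well's p-ERK:total ERK ratio, read by SureFire Ultra, was fitted with a four-parameter model for IC50.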

KRAS-WT = KRAS-WT (Homo sapiens, UniProt P01116); experiment: SOS-catalyzed nucleotide exchange assay (Procedure A, TR-FRET), KRAS-WT; type: biochemical; conditions: nucleotide exchange, read-out: KRAS WT GNE IC50
Procedure, shortened: as §1

KRAS-G12V = KRAS-G12V (Homo sapiens, UniProt P01116, G12V); experiment: SOS-catalyzed nucleotide exchange assay (Procedure A, TR-FRET), KRAS-G12V; type: biochemical; conditions: nucleotide exchange, read-out: KRAS G12V GNE IC50
Procedure, shortened: as §1

SW620 cells = experiment: Cellular phospho-ERK assay, SW620 cells (homozygous KRAS-G12V); type: cell-based; conditions: read-out: SW620 pERK IC50
Procedure, shortened: as §2

KRAS-G13D = KRAS-G13D (Homo sapiens, UniProt P01116, G13D); experiment: SOS-catalyzed nucleotide exchange assay (Procedure A, TR-FRET), KRAS-G13D; type: biochemical; conditions: nucleotide exchange, Procedure A; read-out: KRAS G13D GNE IC50
MKN-1 cells = experiment: Cellular phospho-ERK assay, MKN-1 cells (amplified wild-type KRAS); type: cell-based; conditions: read-out: MKN1 pERK IC50
Procedure, shortened: as §2

[2] = Homo sapiens, ASPC1, 2 h, KRAS-G12D, 2 hours
[3] = Homo sapiens, SW-620, 2 hours compound incubation
[4] = Homo sapiens, ASPC1, 2 h, 2 hours compound incubation
[5] = Homo sapiens, 2 hours compound incubation
[6] = Homo sapiens, SW-620, KRAS-G12V, 2 hours
[7] = Homo sapiens, amplified wild-type KRAS, 2 hours

IC50 [1] [nM]	IC50 (PANC08.13 cells) [nM]	IC50 (KRAS-G12D) [nM]	IC50 (KRAS-WT) [nM]	IC50 (KRAS-G12V) [nM]	IC50 (SW620 cells; [3]) [nM]	IC50 (KRAS-G13D) [nM]	IC50 (AsPC-1 cells; [4]) [nM]	IC50 (MKN-1 cells; [5]) [nM]	Molecule	IC50 (AsPC-1 cells; [2]) [nM]	IC50 (SW620 cells; [6]) [nM]	IC50 (MKN-1 cells; [7]) [nM]	IC50 (SW620 cells; 2 hours compound incubation) [nM]	IC50 (AsPC-1 cells; 2 hours compound incubation) [nM]	IC50 (MKN-1 cells; 2 hours compound incubation) [nM]
25.3	1860	59	455	34.4					Cc1cc2[nH]ncc2c(-c2nccc3c4c(N5CCCC6(CC(=O)N6)C5)nc(OC[C@@]56CCCN5C[C@H](F)C6)nc4n(C)c23)c1C(F)(F)F (single isomer, unassigned) [Ex-21]	3260					
21.7		6.79	18.6	11	31.2	14.1	40.7	41.5	C#Cc1cc(F)cc2cc3[nH]ncc3c(-c3nccc4c3sc3nc(OC[C@@]56CCCN5C[C@H](F)C6)nc(N5CCOC[C@@](C)(O)C5)c34)c12 [Ex-165]						
10.5		6.22	19.8	11.6	22.7	12.5	51.9	44.8	CC[C@@H]1CCCc2cc3[nH]ncc3c(-c3nccc4c3sc3nc(OC[C@@]56CCCN5C[C@H](F)C6)nc(N5CCOC[C@@](C)(O)C5)c34)c21 [Ex-176]						
44.5		2.44	5.79	11.1	17	20.2	20.4	63.6	C[C@@]1(O)COCCN(c2nc(OC[C@@]34CCCN3C/C(=C\F)C4)nc3sc4c(-c5c(C6CC6)c(Cl)cc6[nH]ncc56)nccc4c23)C1 [Ex-208, (6S)-4-(8-(6-chloro-5-cyclopropyl-1H-indazol-4-yl)-2-(((S,Z)-2-(fluoromethylene)tetrahydro-1H-pyrrolizin-7a(5H)-yl)methoxy)pyrido[4′,3′:4,5]thieno[2,3-d]pyrimidin-4-yl)-6-methyl-1,4-oxazepan-6-ol]						
13.4		4.71	12.2	14.1	12.3	12.7	35	20.1	[2H]C1([2H])CC[C@]2(COc3nc(N4CCOC[C@@](C)(O)C4)c4c(n3)sc3c(-c5c(C6CC6)c(Cl)cc6[nH]ncc56)nccc34)N1C[C@H](F)C2([2H])[2H] [Ex-210, (6S)-4-(8-(6-chloro-5-cyclopropyl-1H-indazol-4-yl)-2-(((2R,7aS)-2-fluoro-tetrahydro-1H-pyrrolizin-7a(5H)-yl-1,1,5,5-d4)meth-oxy)pyrido[4′,3′: 4,5]thieno[2,3-d]pyrimidin-4-yl)-6-methyl-1,4-oxaze-pan-6-ol]						
45.4		5.85	16.5	12.1	49.4	15	56.9	83	C[C@@]1(O)COCCN(c2nc(OC[C@@]34CCCN3C[C@@]3(CC3(F)F)C4)nc3sc4c(-c5c(C6CC6)c(Cl)cc6[nH]ncc56)nccc4c23)C1 [Ex-211, (6S)-4-(8-(6-chloro-5-cyclopropyl-1H-indazol-4-yl)-2-(((1S,7a′S)-2,2-difluorodihydro-1′H,3′H-spiro[cyclo-propane-1,2′-pyrrol-izin]-7a′(5′H)-yl)-methoxy)pyrido [4′,3′:4,5]thieno[2,3-d]pyrimidin-4-yl)-6-methyl-1,4-oxaze-pan-6-ol]						
111		9.27	24.5	34.1	23.6	37.6	63.8	42.9	C=C1CN2C[C@H](F)C[C@@]2(COc2nc(N3CCOC[C@@](C)(O)C3)c3c(n2)sc2c(-c4c(C5CC5)c(Cl)cc5[nH]ncc45)nccc23)C1 [Ex-223, (6S)-4-(8-(6-chloro-5-cyclopropyl-1H-indazol-4-yl)-2-(((2R,7aR)-2-fluoro-6-methylenetetra-hydro-1H-pyrrol-izin-7a(5H)-yl)methoxy)pyrido [4′,3′:4,5]thieno[2,3-d]pyrimidin-4-yl)-6-methyl-1,4-oxaze-pan-6-ol]						

Molecule	IC50 [1] [nM]	IC50 (PANC08.13 cells) [nM]	IC50 (KRAS-G12D) [nM]	IC50 (KRAS-WT) [nM]	IC50 (KRAS-G12V) [nM]	IC50 (SW620 cells; [3]) [nM]	IC50 (KRAS-G13D) [nM]	IC50 (AsPC-1 cells; [4]) [nM]	IC50 (MKN-1 cells; [5]) [nM]	IC50 (AsPC-1 cells; [2]) [nM]	IC50 (SW620 cells; [6]) [nM]	IC50 (MKN-1 cells; [7]) [nM]	IC50 (SW620 cells; 2 hours compound incubation) [nM]	IC50 (AsPC-1 cells; 2 hours compound incubation) [nM]	IC50 (MKN-1 cells; 2 hours compound incubation) [nM]
C=C(C)c1c(C)cc2[nH]ncc2c1-c1nncc2c1sc1nc(OC[C@@]34CCCN3C[C@H](F)C4)nc(N3CCOC[C@@](C)(O)C3)c12 [Ex-278]	74.9		14.6	46	30.4		20.3			364	103	98.2			
Cc1cc2[nH]ncc2c(-c2nncc3c2sc2nc(OC[C@@]45CCCN4C[C@H](F)C5)nc(N4CCOC[C@@](C)(O)C4)c23)c1C1CC1 [Ex-279, (6S)-4-(8-(5-cyclopropyl-6-methyl-1H-indazol-4-yl)-2-(((2R,7aS)-2-fluorotetrahydro-1H-pyrrolizin-7a(5H)-yl)methoxy)pyrimi-do[5′,4′:4,5]thieno[2,3-d]pyridazin-4-yl)-6-methyl-1,4-oxazepan-6-ol]	97.6		5.15	13.6	16		7.59			114	99.8	43			
(6S)-4-(8-(6-chloro- 5-cyclopropyl-1H- indazol-4-yl)-2- (((6'R,7a′R)-6′- fluorodihydro- 1′H,3′H-spiro[cyclo- propane-1,2′-pyr- rolizin]-7a′(5′H)- yl)methoxy)pyrido [4′,3′:4,5]thieno[2,3- d]pyrimidin-4-yl)-6- methyl-1,4-oxaze- pan-6-ol [Ex-218]	77.4		3.42	6.76	8.69		7.46						20.2	31.9	37.4
